Common to all, as to assay type: cell-based, Plasmodium falciparum
Test [1] has as its system P. falciparum Tm4/8.2 (wild type). As to the kind of experiment: In vitro anti-Plasmodial activity against Tm4/8.2. The following applies: P. falciparum Tm4/8.2, wild type DHFR. As to the method:
(§1) It is an object of the invention to provide anti-folate antimalarials with dual-binding modes, and pharmaceutically acceptable salts thereof, for substantially inhibiting dihydrofolate reductase enzymes. Enzymes, comprising dihydrofolate reductase of Plasmodium falciparum, wild-type, double (C59R+S108N), triple (N51+C59R+S108N, C59R+S108N+1164L), and quadruple (N51+C59R+S108N+I164L) mutants were prepared. The inhibition constants (Ki) of the enzymes with the invented compounds were investigated using a standard method. In vitro antimalarial activity (IC50) with malaria parasites carrying Tm4/8.2 (wild type), K1CB1 (double mutant, C59R+S108N), W2 (triple mutant N51I+C59R+S 108N), Cs1-2 (triple mutant, C59R+S108N+I164L), and V1/S (quadruple mutant, N51I+C59R+S108N+I164L) were also investigated using a standard method.

In test [2] the test system is P. falciparum K1CB1 (double mutant, C59R+S108N). As to the kind of experiment: In vitro anti-Plasmodial activity against K1CB1. As to the method: as §1
Test [3] deals with P. falciparum W2 (triple mutant N51I+C59R+S108N). Briefly: In vitro anti-Plasmodial activity against W2. As to the method:
as §1

Test [4] deals with P. falciparum Cs1-2 (triple mutant, C59R+S108N+I164L). Briefly: In vitro anti-Plasmodial activity against Cs1-2. As to the method: as §1
The subject of test [5] is P. falciparum V1/S (quadruple mutant, N51I+C59R+S108N+I164L). Briefly: In vitro anti-Plasmodial activity against V1/S. As to the method:
as §1

Where [6] appears, read: Plasmodium falciparum, read-out: IC50 K1CB1, P. falciparum K1CB1, double mutant.
[7] abbreviates: Plasmodium falciparum, W2, read-out: IC50 W2, P. falciparum W2, triple mutant.
The mark [8] stands for this setting: Plasmodium falciparum, read-out: IC50 Cs1-2, P. falciparum Cs1-2, triple mutant.
Where [9] appears, read: Plasmodium falciparum, read-out: IC50 V1/S, P. falciparum V1/S, quadruple mutant.

Structures can show the parent of a compound that is named as a salt. Where two headings read alike, the source gives them in different places.

Turning to `CCc1nc(N)nc(N)c1OCCCOc1cccc(-c2c(N)nc(N)nc2CC)c1` [Compound A, 5-(3′-(3″-(2,4-diamino-6-ethylpyrimidin-5-yloxy)propoxy)phenyl)-6-ethylpyrimidine-2,4-diamine], the IC50 in test [1] (Plasmodium falciparum) was 290 ± 50 nM; in test [2] (setting [6]), 220 ± 60 nM; in test [3] (setting [7]), 250 ± 80 nM; in test [4] (setting [8]), 510 ± 80 nM; in test [5] (setting [9]), 1720 ± 690 nM.

As to `CCc1nc(N)nc(N)c1OCCCOc1ccc(-c2c(N)nc(N)nc2CC)cc1` [Compound B, 5-(4′-(3″-(2,4-diamino-6-ethylpyrimidin-5-yloxy)propoxy)phenyl)-6-ethylpyrimidine-2,4-diamine], the IC50 was 69 ± 10 nM in test [1] (Plasmodium falciparum); over 1000 nM in test [2] (setting [6]); over 1000 nM in test [3] (read-out: IC50 W2, P. falciparum W2, triple mutant); over 1000 nM in test [4] (read-out: IC50 Cs1-2, P. falciparum Cs1-2, triple mutant); over 1000 nM in test [5] (read-out: IC50 V1/S, P. falciparum V1/S, quadruple mutant).

In the case of `CCc1nc(N)nc(N)c1OCCCOc1ccc(-c2c(N)nc(N)nc2CC)cc1` [Compound D, 5-(4′-(3″-(2,4-diamino-6-ethylpyrimidin-5-yloxy)propoxy)phenyl)-6-ethylpyrimidine-2,4-diamine dihydrochloride], the IC50 in test [1] (dihydrochloride) was 63 ± 10 nM; in test [2] (read-out: IC50 K1CB1, P. falciparum K1CB1, double mutant, dihydrochloride) it was 1840 ± 310 nM; in test [3] (read-out: IC50 W2, P. falciparum W2, triple mutant, dihydrochloride), 2380 ± 110 nM; in test [4] (read-out: IC50 Cs1-2, P. falciparum Cs1-2, triple mutant, dihydrochloride), 3950 ± 360 nM; in test [5] (read-out: IC50 V1/S, P. falciparum V1/S, quadruple mutant, dihydrochloride), 4400 ± 710 nM.

As to `CCc1nc(N)nc(N)c1-c1ccc(OCCCOc2ccc(-c3c(N)nc(N)nc3CC)cc2)cc1` [Compound E, 5-(4′-3″-(4″′-(2,4-diamino-6-ethylpyrimidin-5-yl)phenoxy)propoxy)phenyl)-6-ethylpyrimidine-2,4-diamine dihydrochloride], the IC50 in test [1] (Plasmodium falciparum) is 35 nM; in test [2] (setting [6]) it was 330 ± 40 nM; in test [3] (setting [7]), 280 ± 20 nM; in test [4] (setting [8]) it was 310 ± 20 nM; in test [5] (setting [9]), 330 ± 20 nM.

Take `CCc1nc(N)nc(N)c1-c1ccc(Cl)cc1` [Pyr, Pyrimethamine, reference compound]: the IC50 was 66 ± 30 nM in test [1] (Plasmodium falciparum); 27000 ± 3330 nM in test [2] (setting [6]); 39000 ± 5420 nM in test [3] (setting [7]); 37000 ± 5980 nM in test [4] (setting [8]); over 100000 nM in test [5] (setting [9]).

The record behind these values is patent US9000003B2, “Anti-folate antimalarials with dual-binding modes and their preparation” (priority 2011, dated 2015).
